Assay results taken from US7741493B2, “Heterocyclic compounds as P2X7 ion channel blockers” (Aventis Pharmaceuticals Inc., priority 2003, dated 2010).
Structures can show the parent of a compound that is named as a salt. Where two headings read alike, the source gives them in different places.

Molecular target: T1, P2X7 (Homo sapiens, UniProt Q99572)
T1 sequence (Q99572 1-595): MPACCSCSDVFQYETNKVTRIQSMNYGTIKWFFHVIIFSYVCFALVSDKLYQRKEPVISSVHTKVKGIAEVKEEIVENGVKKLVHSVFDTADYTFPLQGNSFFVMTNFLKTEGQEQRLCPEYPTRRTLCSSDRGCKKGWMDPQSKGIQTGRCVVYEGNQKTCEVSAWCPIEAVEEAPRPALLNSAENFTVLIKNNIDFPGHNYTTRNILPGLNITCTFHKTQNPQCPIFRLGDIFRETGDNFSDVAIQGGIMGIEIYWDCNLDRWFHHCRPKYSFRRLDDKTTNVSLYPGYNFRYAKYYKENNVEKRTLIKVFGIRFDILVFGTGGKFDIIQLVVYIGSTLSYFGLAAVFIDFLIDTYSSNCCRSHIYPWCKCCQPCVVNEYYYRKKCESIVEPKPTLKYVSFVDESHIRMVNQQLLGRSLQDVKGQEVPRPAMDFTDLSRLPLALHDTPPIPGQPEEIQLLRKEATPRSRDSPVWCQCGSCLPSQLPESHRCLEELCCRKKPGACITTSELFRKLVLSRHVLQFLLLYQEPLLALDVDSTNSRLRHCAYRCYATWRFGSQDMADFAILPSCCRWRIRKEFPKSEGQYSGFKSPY
Assay: YO-PRO-1 dye uptake assay in U373 cells stably expressing P2X7
Format: cell-based
Parameters: The complete open reading frame of human P2X7 was amplified from Incyte clone 148057; expressed in transfected cells
Settings: dye uptake through P2X7, U373 cells, 300 μM BzATP, 5 μM YO-PRO-1, test compounds 30 nM to 3 μM
How it was run: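 U373 cells stably expressing human P2X7 preincubated 20 min at 37° C. with compound (30 nM to 3 μM) in Mg/Ca-free HBSS. YO-PRO-1 (5 μM final) and BzATP (300 μM final) then added for 1.5 h at 37° C.; dye-uptake fluorescence compared with compound-free control.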

Compound	IC50 (read-out: IC50) [nM]	IC50 (IC50 (nM)) [nM]
CC(C)(C1=N[C@@H](c2ccccc2)[C@@H](c2ccccc2)N1)c1ccc(Cl)cc1	537	–
C[C@@]1(c2ccccc2)N=C(COC2CCOc3ccccc32)N[C@@H]1c1ccccc1 (stereo partly shown)	490	–
Brc1ccccc1CC1=N[C@@H](c2ccccc2)[C@@H](c2ccccc2)N1 [cis-4,5-diphenyl-2-(2-bromobenzyl)-4,5-dihydro-1H-imidazole]	321	–
C[C@@]1(c2ccccc2)N=C(COc2ccccc2)N[C@@H]1c1ccccc1 (relative stereo) [2-[(Phenoxy)methyl]-cis-4,5-diphenyl-4-methyl-4,5-dihydro-1H-imidazole trifluoroacetate]	405	–
c1ccc(CNCC2=N[C@@H](c3ccccc3)[C@@H](c3ccccc3)N2)cc1 [[(cis-4,5-Diphenyl-4,5-dihydro-1H-imidazol-2-yl)methyl]benzylamine ditrifluoroacetate]	–	318
Fc1ccc(CNC2=N[C@@H](c3ccc(Cl)cc3)[C@@H](c3ccc(Cl)cc3)N2)cc1F [[cis-4,5-bis-(4-Chlorophenyl)-4,5-dihydro-1H-imidazol-2-yl]-(3,4-difluorobenzyl)-amine hydrochloride]	400	–
c1ccc(COc2ccc(CSC3=N[C@@H](c4ccccc4)[C@@H](c4ccccc4)N3)cc2OCc2ccccc2)cc1 [2-[(3,4-Dibenzyloxybenzyl)thio]-cis-4,5-diphenyl-4,5-dihydro-1H-imidazole hydrochloride]	548	–
COc1ccccc1CNC1=N[C@@H](c2ccccc2)[C@@H](c2ccccc2)N1 [cis-4,5-diphenyl-2-(2-methoxybenzyl)amino-4,5-dihydro-1H-imidazole]	409	–
Fc1ccccc1CSC1=N[C@@H](c2ccccc2)[C@@H](c2ccccc2)N1 [cis-4,5-diphenyl-2-(2-fluorobenzyl)thio-4,5-dihydro-1H-imidazole]	819	–
C[C@@H](CC1=N[C@@H](c2ccccc2)[C@@H](c2ccccc2)N1)c1ccccc1	13	–
OC(C1=N[C@@H](c2ccccc2)[C@@H](c2ccccc2)N1)c1ccccc1 (stereo partly drawn) [cis-(4,5-diphenyl-4,5-dihydro-1H-imidazol-2-yl)-phenyl-methanol]	241	–
Fc1cccc([C@H]2NC(CCc3cccs3)=N[C@H]2c2cccc(F)c2)c1 [2-[(2-Thiophen-2-yl)ethyl]-cis-4,5-bis-(3-fluorophenyl)-4,5-dihydro-1H-imidazole trifluoroacetate]	592	–
CN(Cc1ccccc1)C1=N[C@@H](c2ccccc2)[C@@H](c2ccccc2)N1 [(cis-4,5-Diphenyl-4,5-dihydro-1H-imidazol-2-yl)-N-methylbenzylamine hydrochloride]	147	–
c1ccc([C@H]2NC(COC3CCCCC3)=N[C@H]2c2ccccc2)cc1 [2-[(Cyclohexyloxy)methyl]-cis-4,5-diphenyl-4,5-dihydro-1H-imidazole trifluoroacetate]	315	–
C[C@@]1(c2cccc(F)c2)N=C(NCc2cccc(F)c2)N[C@@H]1c1cccc(F)c1	49	–
Fc1cccc(OCC2=N[C@@H](c3ccccc3)[C@@H](c3ccccc3)N2)c1 [2-[(3-Fluorophenoxy)methyl]-cis-4,5-diphenyl-4,5-dihydro-1H-imidazole trifluoroacetate]	224	–
Fc1ccc(CCNC2=N[C@@H](c3ccccc3)[C@@H](c3ccccc3)N2)cc1 [cis-4,5-diphenyl-2-[2-(4-fluorophenyl)ethylamino]-4,5-dihydro-1H-imidazole]	331	–
Cc1cccc(CNC2=N[C@@H](c3ccccc3)[C@@H](c3ccccc3)N2)c1 [cis-4,5-diphenyl-2-(3-methylbenzyl)amino-4,5-dihydro-1H-imidazole]	187	–
Cc1cccc(COCC2=N[C@@H](c3ccccc3)[C@@H](c3ccccc3)N2)c1 [2-[(3-Methylbenzyloxy)methyl]-cis-4,5-diphenyl-4,5-dihydro-1H-imidazole hydrochloride]	415	–
Fc1ccc(CCC2=N[C@@H](c3ccccc3)[C@@H](c3ccccc3)N2)cc1 [2-[2-(4-Fluorophenyl)ethyl]-cis-4,5-diphenyl-4,5-dihydro-1H-imidazole trifluoroacetate]	218	–

Compound	IC50 (read-out: IC50) [nM]	IC50 (IC50 (nM)) [nM]
CC(C1=N[C@](C)(c2ccccc2)[C@H](c2ccccc2)N1)c1ccc(Cl)cc1 (relative stereo) [2-[1-(4-Chlorophenyl)-1-ethyl]-cis-4,5-diphenyl-4-methyl-4,5-dihydro-1H-imidazole trifluoroacetate]	331	–
c1ccc(CSCC2=N[C@@H](c3ccccc3)[C@@H](c3ccccc3)N2)cc1 [2-[(Benzylsulfanyl)methyl]-cis-4,5-diphenyl-4,5-dihydro-1H-imidazole trifluoroacetate]	583	–
Cc1ccc([C@H]2NC(NCc3ccccc3)=N[C@H]2c2ccc(C)cc2)cc1 [[cis-4,5-bis-(4-Methylphenyl)-4,5-dihydro-1H-imidazol-2-yl]-benzylamine hydrochloride]	275	–
c1ccc(SCC2=N[C@@H](c3ccccc3)[C@@H](c3cccnc3)N2)cc1 (relative stereo) [ditrifluoroacetate]	866	–
CC(OCC1=N[C@@](C)(c2ccccc2)[C@@H](c2ccccc2)N1)C1CCCC1 (relative stereo) [2-[(1-Cyclopentyl-1-ethoxy)methyl]-cis-4,5-diphenyl-4-methyl-4,5-dihydro-1H-imidazole hydrochloride]	160	–
Fc1cc(CNC2=N[C@@H](c3ccccc3)[C@@H](c3ccccc3)N2)cc(F)c1F [(cis-4,5-Diphenyl-4,5-dihydro-1H-imidazol-2-yl)-(3,4,5-trifluorobenzyl)amine hydrochloride]	77	–
Cc1cccc(CCC2=N[C@@H](c3ccccc3)[C@@H](c3ccccc3)N2)c1 [2-[2-(3-Methylphenyl)ethyl]-cis-4,5-diphenyl-4,5-dihydro-1H-imidazole trifluoroacetate]	229	–
Fc1ccc(CNC2=N[C@@H](c3ccccc3Br)[C@@H](c3ccccc3Br)N2)cc1 [[cis-4,5-bis-(2-Bromophenyl)-4,5-dihydro-1H-imidazol-2-yl]-(4-fluorobenzyl)amine hydrochloride]	898	–
Clc1cccc(CC2=N[C@@H](c3ccccc3)[C@@H](c3ccccc3)N2)c1 [cis-4,5-diphenyl-2-(3-chlorobenzyl)-4,5-dihydro-1H-imidazole]	34	–
Fc1ccc(CNC2=N[C@@H](c3ccccc3Cl)[C@@H](c3ccccc3Cl)N2)cc1F [[cis-4,5-bis-(2-Chlorophenyl)-4,5-dihydro-1H-imidazol-2-yl]-(3,4-difluorobenzyl)-amine hydrochloride]	378	–
FC(F)(F)c1ccc(CC2=N[C@@H](c3ccccc3)[C@@H](c3ccccc3)N2)cc1 [2-(4-Trifluoromethylbenzyl)-cis-4,5-diphenyl-4,5-dihydro-1H-imidazole trifluoroacetate]	403	–
C[C@@]1(c2ccccc2)N=C(COc2ccccc2Cl)N[C@@H]1c1ccccc1 (relative stereo) [2-[(2-Chlorophenoxy)methyl]-cis-4,5-diphenyl-4-methyl-4,5-dihydro-1H-imidazole hydrochloride]	743	–
Cc1ccccc1CCC1=N[C@H](c2ccccc2)[C@H](c2ccccc2)N1 [cis-4,5-diphenyl-2-(2-(2-methylphenyl)ethyl)-4,5-dihydro-1H-imidazole]	42	–
Cc1ccc(F)c(CC2=N[C@@H](c3ccccc3)[C@@H](c3ccccc3)N2)c1F [trifluoroacetate]	594	–
C[C@@]1(c2ccccc2)N=C(COc2cccc(F)c2)N[C@@H]1c1ccccc1 (relative stereo) [2-[(3-Fluorophenoxy)methyl]-cis-4,5-diphenyl-4-methyl-4,5-dihydro-1H-imidazole trifluoroacetate]	104	–
C[C@]1(c2ccccc2)N=C(Cc2ccc(F)cc2)N[C@H]1c1ccccc1 (relative stereo) [2-(4-Fluorobenzyl)-cis-4,5-diphenyl-4-methyl-4,5-dihydro-1H-imidazole trifluoroacetate]	44	–
Cc1cccc([C@H]2NC(NCc3ccc(F)cc3)=N[C@H]2c2cccc(C)c2)c1 [[cis-4,5-bis-(3-Methylphenyl)-4,5-dihydro-1H-imidazol-2-yl]-(4-fluorobenzyl)amine hydrochloride]	107	–
Clc1cccc(CSC2=N[C@@H](c3ccccc3)[C@@H](c3ccccc3)N2)c1 [cis-4,5-diphenyl-2-(3-chlorobenzyl)thio-4,5-dihydro-1H-imidazole]	634	–
c1ccc(CCC2=N[C@H](c3ccccc3)[C@H](c3ccccc3)N2)cc1 [cis-4,5-diphenyl-2-(2-phenylethyl)-4,5-dihydro-1H-imidazole]	–	77
c1ccc(CCCC2=N[C@H](c3ccccc3)[C@H](c3ccccc3)N2)cc1 [2-[3-phenyl-propyl]-cis-4,5-diphenyl-4,5-dihydro-1H-imidazole trifluoroacetate]	540	–
